Measured values: patent publication US10849906B2, “Use of Akt2 in diagnosis and treatment of tumor” (priority 2015, dated 2020)

How the values were obtained:
CCRF-CEM cells = assay: Apoptosis by Annexin V-FITC PI double staining (flow cytometry), CCRF-CEM; format: cell-based, human; conditions: compared to dexamethasone alone; FIG. 2A: Akt inhibitor 1 μM, dexamethasone 1 μM, LY294002 30 μM; FIG. 2G, 2J, 2K
Experimental: (§1) The control group was not added with any reagents. All experiments were performed in triplicate.
(§2) Apoptosis was detected by Annexin V-FITC PI double staining method (flow cytometry kit (FITC, PI double staining), Sangon Biotech (Shanghai) Co., Ltd.)), and the collected cells were washed once with phosphate buffered saline (PBS) (135 mM NaCl, 2.7 mM KCl, 1.5 mM KH2PO4 and 8 mM K2HPO4, pH 7.2); the 4× binding buffer was diluted to a 1× binding buffer with deionized water, then the cells were resuspended with 195 ul of the 1× binding buffer at a cell density of 2-5×10^5/ml; 5 μl of Annexin V-FITC was added to the 195 μl of the cell resuspension and mixed, and incubated in dark at room temperature for 10 minutes; the cells were washed once with 200 μl of the 1× binding buffer, and then resuspended in 190 μl of the 1× binding buffer; 10 μl of propidium iodide (20 μg/ml) was added. A flow cytometry device (Beckman company) was used for detection, and the rate of apoptosis was analyzed using Summit software.
(§3) The cells were cultured in RPMI 1640 complete medium (Gibco company) containing 10% fetal bovine serum (FBS, Gibco company) in an incubator (Thermo company) at 5% CO2 and 37° C. until reaching logarithmic growth phase, then different concentrations of inhibitors and/or dexamethasone/ethanol/DMSO were added to the culture medium, followed by further culturing (for addition of dexamethasone/ethanol/DMSO, for 48 hours, and for addition of inhibitor, for 24 hours), and apoptosis was detected by Annexin V-FITC PI double staining and proteins were detected by Western blot, as described in Example 1.
(§4) As described in Example 3, the cells were cultured in RPMI 1640 complete medium containing 10% fetal bovine serum under 5% CO2 and 37° C. until reaching logarithmic growth phase, and then dexamethasone and different concentrations of Akt inhibitor were added to the culture medium, followed by further culture (for addition of dexamethasone/DMSO, for 48 hours, and for addition of the inhibitor, for 24 hours), the apoptosis was detected by Annexin V-FITC PI double staining method and proteins were detected by Western blot as described in Example 1 as well as the cell viability was detected by CCK-8 method.

[1] = tested on: Akt/FoxO3a/Bim signaling pathway in CCRF-CEM cells; assay: Western blot of Akt/FoxO3a/Bim signaling pathway proteins in CCRF-CEM cells; format: cell-based, human
Experimental: as §1
Protein detection by Western blot: in the examples of the present invention, Akt antibody (rabbit derived), phosphorylated Akt antibody (rabbit derived), FoxO3a antibody (rabbit derived), phosphorylated FoxO3a antibody (rabbit derived) and GAPDH antibody (rabbit derived) and secondary antibodies were all purchased from CST company. The cells were collected in a centrifuge tube and centrifuged at 1000 rpm, the supernatant was discarded and the cells were washed twice with PBS pre-cold at 4° C.; cell lysis buffer (150 mM NaCl, 1% NP-40, 0.1% SDS, 2 μg/ml Aprotinin, 2 μg/ml Leupeptin, 1 mM PMSF, 1.5 mM EDTA, 1 mM sodium vanadate) was added and the cells were lysed on ice for 40 minutes, the cell lysate was centrifuged at 20000 rpm, 4° C. for 15 minutes, and the supernatant was collected; a protein loading buffer for sodium dodecyl sulfate polyacrylamide (SDS-PAGE) gel electrophoresis (1.25 mL 1MTris-HCl (pH6.8), 0.5 g SDS, 25 mg BPB, 2.5 mL glycerol, 5 mL deionized water) was added, followed by boiling for 5 minutes to denature proteins; the loading buffer containing denatured proteins was applied to 10% SDS-PAGE for electrophoresis at 120 V, and then transferred to a PVDF membrane (Sangon Biotech (Shanghai) Co., Ltd.) at 130 V for 1.5 hours; after the membrane transfer was completed, the PVDF membrane was immediately rinsed with a Western washing solution (150 mmol/L NaCl, 50 mmol/L Tris-HCl (pH 7.5)) for 1-2 minutes; added with 5% non-fat milk powder (Shanghai Biotechnology Co., Ltd.), agitated gently and then blocked at room temperature for 60 minutes; a primary antibody diluted appropriately with 5% non-fat milk powder was added, and incubated overnight at room temperature with gentle agitating; the primary antibody was recovered and the membrane was washed three times with the washing solution for 5-10 minutes each; a horseradish peroxidase-labeled secondary antibody diluted appropriately with the Western washing solution was added, and incubated at room temperature for 1 hour with gentle agitating; the secondary antibody was recovered and the membrane was washed three times with the Western washing solution for 5-10 minutes each. An appropriate amount of developing solution (DAB 4 mg, 30% hydrogen peroxide 15 μL, 0.01 M Tris-Cl (pH 7.5) 5 mL) was dropped on the PVDF membrane, the image was detected using a bioluminescence image colorimeter and a gel imaging system (Thermo company), and the quantitative analysis of bands was performed using Image Lab software.
as §3
Methods: CCRF-CEM cells were cultured in RPMI 1640 complete medium (Gibco company) containing 10% fetal bovine serum (FBS, Gibco company) in an incubator (Thermo company) at 5% CO2 and 37° C. until reaching logarithmic growth phase, then DMSO, dexamethasone and different inhibitors (DMSO: 0.1%, dexamethasone: 0.1 μM, inhibitors: 0.8 μM) were added to the culture medium, and further cultured (for addition of dexamethasone or DMSO, for 48 hours, and for addition of inhibitors, for 24 hours), and the proteins were detected by Western blot, as described in Example 1.

Jurkat cells = assay: Apoptosis by Annexin V-FITC PI double staining, Jurkat; format: cell-based, human
Experimental: as §2, §3, §4
The transfected cells were selected and passaged for 3 to 5 passages after resuscitation, with Interferin™ as transfection reagent, and the transfection procedure was performed in accordance with the instruction of the transfection reagent. In short, the cells of logarithmic growth phase were plated at 2×10^5/well, the cells were replaced with fresh complete medium (free of antibiotics) during transfection, siRNA was diluted with Opti-MEM and added with an appropriate amount of […]in™ and mixed, incubated at room temperature for 10 minutes prior to being added dropwise to the cells, and the cells were harvested at appropriate time. The cells were transfected with green fluorescein-labeled siRNA (FAM-siRNA) (siRNA at a final concentration of 20 μM, 1.25 μl/well), and the transfection efficiency was observed using a fluorescence microscope 24 hours later. The dexamethasone group was added 24 hours after transfection, followed by culture for further 24 hours, and then the cells were collected for observation; and the equal amount of anhydrous ethanol was added to the control group.

Daudi cells [2] = assay: Apoptosis by Annexin V-FITC PI double staining, Daudi; format: cell-based, human; conditions: compared to the dexamethasone group; FIG. 2K, 4L
Experimental: as §2
as §3, with “1. […]” for “1.”

Daudi cells [3] = assay: Cell viability by CCK-8 and combination index, Daudi; format: cell-based, human; conditions: B lymphoma cells; as shown in Table 1
Experimental: as §4
The inhibitory effect of two drugs (dexamethasone and an inhibitor) alone and in combination on various lymphocyte lines was observed by CCK-8 method (CCK-8 kit), and then the half-inhibitory concentration of each drug was calculated using the median effect equation, and the combination index (CI) of the two drugs used in combination was calculated using CompuSyn software.
(1) the lymphocytes of logarithmic growth phase were taken and made to a cell suspension of 5×10^4/mL, a blank control group (5 wells), a dexamethasone group (3 wells for each concentration, triplicates), a single inhibitor group (3 wells for each concentration, triplicates), a dexamethasone plus inhibitor group (3 wells for each combined concentration, triplicates) were prepared, 180 μL of the suspension was seeded to each well of a 96-well plate, and incubated for 24 hours in an incubator at 5% CO2 and 37° C.
Based on the drug resistance of cells, the ratio of two drugs was fixed. The dexamethasone group was cultured for 48 hours while the inhibitor group was cultured for 24 hours.
(3) 10 μl of CCK-8 was added to each well, and cultured for 2 hours, and the optical density (OD) was measured at 450 nm using an automatic microplate reader, and the proliferation inhibition rate of the drug on cell was calculated.
(4) the proliferation inhibition rate was calculated according to the following equation: cell proliferation inhibition rate=(1-average OD value in the test group/average OD value in the control group)×100%, and the effect of interaction between the two drugs was analyzed by Chou-Talalay combination index method.

[4] = tested on: Akt/FoxO3a/Bim proteins in L-02 cells; assay: Western blot of Akt/FoxO3a/Bim proteins in L-02 cells; format: cell-based, human; conditions: pretreated with inhibitor 0.8 μM; FIG. 6B
Experimental: Protein detection by Western blot: in the examples of the present invention, Akt antibody (rabbit derived), phosphorylated Akt antibody (rabbit derived), FoxO3a antibody (rabbit derived), phosphorylated FoxO3a antibody (rabbit derived) and GAPDH antibody (rabbit derived) and secondary antibodies were all purchased from CST company. […] An appropriate amount of developing solution (DAB 4 mg, 30% hydrogen peroxide 15 μL, 0.01 M Tris-Cl (pH 7.5) 5 mL) was dropped on the PVDF membrane, the image was detected using a bioluminescence image colorimeter and a gel imaging system (Thermo company), and the quantitative analysis of bands was performed using Image Lab software.

[5] = tested on: L-02 human-derived healthy liver cell line; assay: CCK-8 viability of healthy liver cells L-02; conditions: FIG. 6A
[6] = CCRF-CEM, inhibitors 0.8 μM, FIG. 5A

Compound: OCC1OC(O)CC(O)C1O (centres unmarked) [2-DG]
- apoptosis of CCRF-CEM cells induced by dexamethasone, inhibitor plus dexamethasone (CCRF-CEM cells): significantly increased
- total FoxO3a expression, inhibitor plus dexamethasone ([1]; compared to dexamethasone alone, FIG. 2H): increased
- expression of pro-apoptosis factor Bim, inhibitor plus dexamethasone ([1]; compared to the only dexamethasone group, FIG. 2B, 2H): significantly up-regulated
- expression of phosphorylated FoxO3a, inhibitor plus dexamethasone ([1]; compared to the only dexamethasone group, FIG. 2B, 2H, 2I): decreased

Compound: NC1(Cc2ccc(Cl)cc2)CCN(c2ncnc3[nH]ccc23)CC1 [CCT128930]
- apoptosis of Jurkat cells, inhibitor in combination with dexamethasone (Jurkat cells; compared to the only/single dexamethasone group, FIG. 2F, 4J): significantly increase
- apoptosis of Daudi cells, inhibitor in combination with dexamethasone (Daudi cells [2]): significantly increase
- expression of p-Akt1 [1, 6]: increased
- expression of p-Akt2 [1, 6]: increased
- effect of inhibitor in combination with dexamethasone in B lymphoma cells (in words) (Daudi cells [3]): additive effect
- expressions of p-Akt1 and p-Akt2 in L-02 cells [4]: correspondingly increased
- damage to liver cells ([5]; DEX 0.1 μM, inhibitors 0.8 μM): least damage
- recovery of liver cell activity [5]: gradually recovered after 6 hours of administration
- liver cell activity ([5]; after six hours of administration): 56.1%

Compound: Akt2 siRNA: siRNA, SEQ ID NO: 7 GGUUCUUCCUCAGCAUCAATT and SEQ ID NO: 8 UUGAUGCUGAGGAAGAACCTT (chain 1 GGUUCUUCCUCAGCAUCAANN; chain 2 UUGAUGCUGAGGAAGAACCNN; listed as RNA, chemistry not given here)
- apoptosis of siRNA-transfected Jurkat cells induced by dexamethasone (Jurkat cells; compared to the dexamethasone group, FIG. 5H): significantly increased
